What was measured:
Assay type in all cases: cell-based
TamR-MCF-7 = test: CellTiter-Glo cell proliferation inhibition, TamR-MCF-7; conditions: 144 h; TamR-MCF-7 (CTG), 6 days, starting concentration 10 μM; read-out: IH % max (maximum inhibition percentage)
In short: (§1)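 MCF-7, TamR-MCF-7, and CRISPR-edited MCF-7 ER D538G or Y537S cells were seeded at 1,000 or 2,000 cells/well in EMEM and cultured 24 h. They were then exposed to a 4-fold, 10-point series (top 10 µM before addition to wells) for 6 days or 72 h at 37 °C. CellTiter-Glo luminescence gave IC50 and maximum % inhibition.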

MDA-MB-231 = test: CellTiter-Glo cell proliferation inhibition, MDA-MB-231; conditions: Homo sapiens, 144 h; MDA-MB-231 (CTG), 6 days, starting concentration 10 μM; read-out: IH % max (maximum inhibition percentage)
MCF-7 ER^Y537S = test: CellTiter-Glo cell proliferation inhibition, MCF-7 ER^Y537S; conditions: Homo sapiens, MCF7, 144 h; MCF-7 ER^Y537S (CTG), 6 days, starting concentration 10 μM; read-out: IH % max (maximum inhibition percentage)
In short: as §1

MDA-MB-468 = test: CellTiter-Glo cell proliferation inhibition, MDA-MB-468; conditions: Homo sapiens, 144 h; MDA-MB-468 (CTG), 6 days, starting concentration 10 μM; read-out: IH % max (maximum inhibition percentage)

| SMILES | inhibition at up to 10 µM (TamR-MCF-7) [%] | inhibition at up to 10 µM (MDA-MB-231) [%] | inhibition at up to 10 µM (MCF-7 ER^Y537S) [%] | inhibition at up to 10 µM (MDA-MB-468) [%] |
| --- | --- | --- | --- | --- |
| CS(=O)(=O)c1ccc(-c2ccc3cc(O)ccc3c2Oc2ccc(OCCOCCOCCN3CCN(c4ccc5c(c4)CN(C4CCC(=O)NC4=O)C5=O)CC3)cc2)cc1 (stereo not drawn) [Compound D30] | 30 |  |  |  |
| CS(=O)(=O)c1ccc(-c2ccc3cc(O)ccc3c2Oc2ccc(OCCOCCOCCN3CCN(c4ccc5c(c4)C(=O)N(C4CCC(=O)NC4=O)C5)CC3)cc2)cc1 (stereo not drawn) [Compound D22, 3-(6-(4-(2-(2-(2-(4-((6-hydroxy-2-(4-(methylsulfonyl)phenyl)naphthalen-1-yl)oxy)phenoxy)ethoxy)ethoxy)ethyl)piperazin-1-yl)-1-oxoisoindolin-2-yl)piperidine-2,6-dione] | 33 | 36 |  |  |
| C[C@@H]1CN(CCOCC(=O)N2CCN(c3ccc4c(c3)C(=O)N(C3CCC(=O)NC3=O)C4=O)CC2)[C@@H](C)CN1CCOc1ccc(Oc2c(-c3ccc(S(C)(=O)=O)cc3)ccc3cc(O)ccc23)cc1 (stereo partly drawn) [Compound D15, 2-(2,6-dioxopiperidin-3-yl)-5-(4-(2-(2-((2S,5R)-4-(2-(4-((6-hydroxy-2-(4-(methylsulfonyl)phenyl)naphthalen-1-yl)oxy)phenoxy)ethyl)-2,5-dimethylpiperazin-1-yl)ethoxy)acetyl)piperazin-1-yl)isoindoline-1,3-dione] |  |  | 46 |  |
| CCN(CCOCCOCCN1CCN(c2ccc3c(c2)C(=O)N(C2CCC(=O)NC2=O)C3=O)CC1)CCOc1ccc(Oc2c(-c3ccc(S(C)(=O)=O)cc3)ccc3cc(O)ccc23)cc1 (stereo not drawn) [Compound D28, 2-(2,6-dioxopiperidin-3-yl)-5-(4-(2-(2-(2-(ethyl(2-(4-((6-hydroxy-2-(4-(methylsulfonyl)phenyl)naphthalen-1-yl)oxy)phenoxy)ethyl)amino)ethoxy)ethoxy)ethyl)piperazin-1-yl)isoindoline-1,3-dione] | 42 | 68 | 49 |  |
| C[C@@H]1CN(CCOc2ccc(Oc3c(-c4ccc(S(C)(=O)=O)cc4)ccc4cc(O)ccc34)cc2)[C@@H](C)CN1CCOCC(=O)N1CCN(c2ccc3c(c2)CN(C2CCC(=O)NC2=O)C3=O)CC1 (stereo partly drawn) [Compound D9, 3-(5-(4-(2-(2-((2R,5S)-4-(2-(4-((6-hydroxy-2-(4-(methylsulfonyl)phenyl)naphthalen-1-yl)oxy)phenoxy)ethyl)-2,5-dimethylpiperazin-1-yl)ethoxy)acetyl)piperazin-1-yl)-1-oxoisoindolin-2-yl)piperidine-2,6-dione] | 31 |  | 34 | 60 |
| CCN(CCCCCN(C)CC(=O)N1CCN(c2ccc3c(c2)C(=O)N(C2CCC(=O)NC2=O)C3=O)CC1)CCOc1ccc(Oc2c(-c3ccc(S(C)(=O)=O)cc3)ccc3cc(O)ccc23)cc1 (stereo not drawn) [Compound D31, 2-(2,6-dioxopiperidin-3-yl)-5-(4-(N-(5-(ethyl(2-(4-((6-hydroxy-2-(4-(methylsulfonyl))phenyl)naphthalen-1-yl)oxy)phenoxy)ethyl)aminopentyl)-N-methylglycyl)piperazin-1-yl)isoindoline-1,3-dione] |  | 56 | 73 | 100 |
| CS(=O)(=O)c1ccc(-c2ccc3cc(O)ccc3c2Oc2ccc(N3CCN(CCCCCOCC(=O)N4CCN(c5ccc6c(c5)CN(C5CCC(=O)NC5=O)C6=O)CC4)CC3)cc2)cc1 (stereo not drawn) [Compound D11, 3-(5-(4-(2-((5-(4-(4-((6-hydroxy-2-(4-(methylsulfonyl)phenyl)naphthalen-1-yl)oxy)phenyl)piperazin-1-yl)pentyl)oxy)acetyl)piperazin-1-yl)-1-oxoisoindolin-2-yl)piperidine-2,6-dione] |  |  | 52 |  |
| CCN(CCOc1ccc(Oc2c(-c3ccc(S(C)(=O)=O)cc3)ccc3cc(O)ccc23)cc1)CC(=O)N1CCN(c2ccc3c(c2)C(=O)N(C2CCC(=O)NC2=O)C3=O)CC1 (stereo not drawn) [Compound D8, 2-(2,6-dioxopiperidin-3-yl)-5-(4-(N-ethyl-N-(2-(4-((6-hydroxy-2-(4-(methylsulfonyl)phenyl)naphthalen-1-yl)oxy)phenoxy)ethyl)glycyl)piperazin-1-yl)isoindoline-1,3-dione] | 35 |  | 33 | 68 |
| CS(=O)(=O)c1ccc(-c2ccc3cc(O)ccc3c2Oc2ccc(OCCOCCOCCOCCN3CCN(c4ccc5c(c4)C(=O)N(C4CCC(=O)NC4=O)C5=O)CC3)cc2)cc1 (stereo not drawn) [Compound D19] | 39 |  |  |  |
| CCN(CCOc1ccc(Oc2c(-c3ccc(S(C)(=O)=O)cc3)ccc3cc(O)ccc23)cc1)C(=O)c1ccc(CCC2CCN(C3CCN(c4ccc5c(c4)C(=O)N(C4CCC(=O)NC4=O)C5=O)CC3)CC2)cc1 (stereo not drawn) [Compound D34, 4-(2-(1′-(2-(2,6-dioxopiperidin-3-yl)-1,3-dioxoisoindolin-5-yl)-[1,4′-bipiperidin]-4-yl)ethyl)-N-ethyl-N-(2-(4-((6-hydroxy-2-(4-(methylsulfonyl)phenyl)naphthalen-1-yl)oxy)phenoxy)ethyl)benzamide] | 41 | 37 | 60 |  |
